Assay results from patent US20160106439A1, “PNEUMATIC TOURNIQUET” (BIONUMERIK PHARMACEUTICALS, INC., priority 2013, published 2016).
Like-named read-outs stand apart in the source and are kept apart here.

Tests used:
[1] = target: T1, Recombinant human peroxiredoxin 1 (Homo sapiens, UniProt Q06830); experiment: Tavocept-derived mesna adducts on Prx 1 (digest, LC-MS); format: binding
T1 construct: purchased SigmaAldrich
T1 sequence (Q06830 1-199): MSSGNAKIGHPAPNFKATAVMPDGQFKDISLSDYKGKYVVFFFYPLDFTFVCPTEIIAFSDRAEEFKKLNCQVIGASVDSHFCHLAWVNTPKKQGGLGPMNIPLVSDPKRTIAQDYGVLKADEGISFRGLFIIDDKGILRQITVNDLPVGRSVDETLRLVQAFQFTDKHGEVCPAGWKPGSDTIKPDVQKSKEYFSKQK
Procedure: Recombinant human peroxiredoxin 1 (purchased from SigmaAldrich; 333 μg; 0.015 micromoles) was reduced using an excess of dithiothreitol (DTT; 35 micromoles) in NH4HCO3 buffer (40 mM, pH 8.0) at 37° C. for 50 minutes (total reaction volume was 750 μL; final Prx concentration was 20 μM; and final DTT concentration was 46 mM). […] (total reaction volume was 500 μL). After 16-18 hours incubation, each reaction was removed and chromatographed using G25 Sephadex columns.
In brief, the G25 chromatographed Prx1 incubation reactions were digested with Trypsin Gold. Trypsin Gold was dissolved in 400 μL of NH4HCO3 and 100 μL of acetonitrile. A 100-150 μL volume of this Trypsin Gold stock was then added to 500 μL of the aforementioned final sample with 75 μL of acetonitrile and then the reaction volume was adjusted to a total of 750 μL with NH4HCO3. The sample was incubated for 6 hours at 37° C. Chymotrypsin digests were by dissolving chymotrypsin in 1M HCL. A 50 μL volume of this chymotrypsin stock solution was added to added to 500 μL of the aforementioned final sample along with 10% (v/v) of CaCl2 (100 mM stock). NH4HCO3 buffer was then added to bring the total reaction volume to 750 μL. Chymotrypsin digests were incubated for 16 hours at 30° C. Following digest by either trypsin or chymotrypsin, reactions were lyophilized to dryness overnight and then resuspended in a minimal amount of HPLC grade water prior to LC MS analyses.
A Symmetry C18 HPLC column (Waters, Franklin, Mass.; 3.5 μm; 4.6×75 mm) and a Waters Alliance liquid chromatography system (Waters 2695; Franklin, Mass.) coupled to a Micromass single quadropole mass detector (Micromass ZMD; Manchester, UK) were used to analyze fragments from trypsin or chymotrypsin digested human Prx1. The mobile phase contained 0.1% of formic acid throughout the run and the flow rate was 0.35 ml/min. […]

recombinant human MET = recombinant human MET (Homo sapiens, UniProt P08581); experiment: biochemical
Procedure: The substrate that was phosphorylated by the kinase, polyglutamate-tyrosine (PolyGT), was purchased from SignalChem (Cat. #P61-58, lot #R098-4).
All other reagents were purchased from Sigma Aldrich. A Tecan Ultra microplate reader with XFluor4 software (Tecan, V4.51) and RdrOle software (Tecan, V4.50) were used in this study.
MET phosphorylated the polyGT substrate using the ATP cofactor and produced ADP. […] For most assays, a stock of ATP (1 mM) and PolyGT (1 mg/mL) was used. […] The reactions, in microplate, were incubated for 60 minutes at 25° C. on a heat block. Following this 60 minute incubation, the kinase activity was evaluated using the ADP-Glo system from Promega that monitored ADP produced when MET phosphorylated the PolyGT substrate.
Kinase assays were run in triplicate or quadruplicate in microplates. Following this, the ADP-Glo detection system (Promega) was used to determine how much ADP had been produced. For 10 μL volume assays, to each microplate well containing 10 μL of kinase reaction was added ADP-Glo reagent (10 μL), plates were spun in a table top centrifuge (1000 rpm (123×g) for 1 minute) to ensure no reagent remained on the well walls, and then agitated for 1 minute to ensure optimal mixing. Plates were incubated at 25 C on a heat block for 40 minutes. Next, kinase detection reagent (20 μL) was added and, as above, centrifugation and agitation were repeated; plates were allowed to incubate at 25° C. on a heat block for 30 minutes. Following the incubation of the kinase detection reagent, plates were read on a Tecan Ultra microplate reader. The Tecan Ultra contained a built-in plate definition file for the whole area 96-well white Corning plates but a plate definition file for the half area 96-well Corning plates was created using the RdrOle component of the Tecan Ultra software.
Kinases vary in their ability to turnover ATP in vitro; therefore, the activity of the MET over a concentration range from 0.78 ng to 20 ng was evaluated in assay volumes of 10 μL. See, FIG. 7.
Therefore, each mole of polymer of 20,000 g/mole would contain approximately 28 moles of the glu-glu-glu-glu-tyr “subpolymer” in a 10 μL assay volume containing 1 μg of the polyGT substrate. […] This was a vast excess of possible tyrosine phosphorylation sites, ensuring that the substrate for phosphorylation was not rate limiting (assuming the higher mass range would produce an even larger excess of glu-glu-glu-glu-tyr “subpolymers”).
Data from MET assays run on the Tecan Ultra microplate spectrophotometer were collected in Microsoft Excel. Error calculations and graphical representations were performed in Microsoft Office Excel (Microsoft Corporation, Redmond, Wash., USA). Determination of IC25 and IC50 values were accomplished using Origin Lab software (OriginLab Corporation, Northampton, Mass., USA).

Chain of recombinant human MET (P08581 956-1390 limits assumed): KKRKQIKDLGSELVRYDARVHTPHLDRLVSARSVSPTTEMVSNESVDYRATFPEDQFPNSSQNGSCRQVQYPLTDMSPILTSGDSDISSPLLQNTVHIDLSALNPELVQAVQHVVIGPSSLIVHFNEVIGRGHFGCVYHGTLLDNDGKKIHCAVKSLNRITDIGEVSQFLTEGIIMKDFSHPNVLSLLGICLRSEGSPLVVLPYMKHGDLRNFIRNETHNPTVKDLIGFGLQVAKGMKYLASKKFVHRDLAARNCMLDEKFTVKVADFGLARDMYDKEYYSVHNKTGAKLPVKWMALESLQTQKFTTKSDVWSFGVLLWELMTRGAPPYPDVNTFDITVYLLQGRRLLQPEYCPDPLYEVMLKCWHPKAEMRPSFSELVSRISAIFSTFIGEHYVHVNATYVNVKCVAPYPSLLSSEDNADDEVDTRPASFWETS

Structure (SMILES): O=S(=O)([O-])CCSSCCS(=O)(=O)[O-].[Na+].[Na+] [Tavocept, disodium 2,2′-dithio-bis-ethane sulfonate]
- Tavocept-derived mesna Adduct detected? ([1]; chymotryptic fragment TDKHGEVCPAGW (Cys 173) of human Prx 1): Yes
- Tavocept-derived mesna Adduct detected? ([1]; chymotryptic fragment VCPTEIIAF (Cys 52) of human Prx 1): Yes
- Tavocept-derived mesna Adduct detected? ([1]; tryptic fragment HGEVCPAGWK (Cys 173) of human Prx 1): Yes
- greater inhibition of MET than Staurosporine alone (recombinant human MET; 10 μM ATP, MET 0.1 ng/μL, 5 mM Tavocept + 100 nM Staurosporine): 22%
- greater inhibition of MET than Staurosporine alone (recombinant human MET; 10 μM ATP, MET 0.1 ng/μL, 5 mM Tavocept + 300 nM Staurosporine): 8%
- greater inhibition of MET than Staurosporine alone (recombinant human MET; 10 μM ATP, MET 0.1 ng/μL, 10 mM Tavocept + 100 nM Staurosporine): 23%
- greater inhibition of MET than Staurosporine alone (recombinant human MET; 10 μM ATP, MET 0.1 ng/μL, 10 mM Tavocept + 300 nM Staurosporine): 8%
- IC50 (recombinant human MET; IC50, MET 2.5 ng/μL, ATP 100 μM): > 40 mM
- IC50 (recombinant human MET; IC50 on MET, 10 μM ATP, 0.1 ng/μL MET): 15.2 ± 0.36 mM
- IC50 (recombinant human MET; IC50 on MET, 10 μM ATP, 2.5 ng/μL MET, single experiment): 17.4 mM
- IC50 (recombinant human MET; IC50 on MET, 100 μM ATP, 0.1 ng/μL MET, single experiment): 37.1 mM
- IC50 (recombinant human MET; IC50 on MET, 100 μM ATP, 2.5 ng/μL MET): > 40 mM
- inhibition at 5000 µM (recombinant human MET; read-out: greater inhibition of MET than Crizotinib alone, 10 μM ATP, MET 0.1 ng/μL, 5 mM Tavocept + 20 nM Crizotinib): 10%
- inhibition at 5000 µM (recombinant human MET; read-out: greater inhibition of MET than Crizotinib alone, 10 μM ATP, MET 0.1 ng/μL, 5 mM Tavocept + 40 nM Crizotinib): 6%
- inhibition at 10000 µM (recombinant human MET; read-out: greater inhibition of MET than Crizotinib alone, 10 μM ATP, MET 0.1 ng/μL, 10 mM Tavocept + 20 nM Crizotinib): 16%
- inhibition at 10000 µM (recombinant human MET; read-out: greater inhibition of MET than Crizotinib alone, 10 μM ATP, MET 0.1 ng/μL, 10 mM Tavocept + 40 nM Crizotinib): 11%
- inhibition at 5000 µM (recombinant human MET; read-out: greater inhibition of MET than Crizotinib alone, 100 μM ATP, MET 2.5 ng/μL, 5 mM Tavocept + 45 nM Crizotinib): 15%
- inhibition at 5000 µM (recombinant human MET; read-out: greater inhibition of MET than Crizotinib alone, 100 μM ATP, MET 2.5 ng/μL, 5 mM Tavocept + 90 nM Crizotinib): 10%
- inhibition at 10000 µM (recombinant human MET; read-out: greater inhibition of MET than Crizotinib alone, 100 μM ATP, MET 2.5 ng/μL, 10 mM Tavocept + 45 nM Crizotinib): 14%
- inhibition at 10000 µM (recombinant human MET; read-out: greater inhibition of MET than Crizotinib alone, 100 μM ATP, MET 2.5 ng/μL, 10 mM Tavocept + 90 nM Crizotinib): 10%
- inhibition at 5000 µM (recombinant human MET; read-out: greater inhibition of MET than Staurosporine alone, 10 μM ATP, MET 0.1 ng/μL, 5 mM Tavocept + 100 nM Staurosporine): 22%
- inhibition at 5000 µM (recombinant human MET; read-out: greater inhibition of MET than Staurosporine alone, 10 μM ATP, MET 0.1 ng/μL, 5 mM Tavocept + 300 nM Staurosporine): 8%
- inhibition at 10000 µM (recombinant human MET; read-out: greater inhibition of MET than Staurosporine alone, 10 μM ATP, MET 0.1 ng/μL, 10 mM Tavocept + 100 nM Staurosporine): 23%
- inhibition at 10000 µM (recombinant human MET; read-out: greater inhibition of MET than Staurosporine alone, 10 μM ATP, MET 0.1 ng/μL, 10 mM Tavocept + 300 nM Staurosporine): 8%
